These results are taken from US20250099431A1, “GLP-1R MODULATING COMPOUNDS” (priority 2020, published 2025).

Data set [1] can be described thus: Microsomal stability (liver microsomal assay, mixed cofactors); predicted hepatic clearance. The format is in vitro ADME. Conditions: liver microsomes 1.0 mg protein/mL (+UDPGA +NADPH), 1 μM analyte, 37° C.; scaled with human liver weight and hepatic blood flow 1.3 L/hr/kg. In short, it runs like this: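 Compound at 1 μM with human or rat pooled liver microsomes, alamethicin-treated, pH 7.4 phosphate, NADPH-regenerating plus UDPGA cofactors, 37° C, sampled 0–70 min. Parent/internal standard ratio by RapidFire QToF MS; half-life from initial log-linear decay, scaled to intrinsic and predicted hepatic clearance and hepatic extraction.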

In the next data set the target is GLP-1R (Homo sapiens (Human), UniProt P43220). Description: GLP-1R activation: cAMP increase in CHO cells stably expressing GLP-1R. Format: cell-based. Conditions: cAMP increase, 10 point dose response, 30 minutes incubation at 37° C., read-out: EC50. In short, it runs like this:
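CHO cells stably expressing GLP-1R were incubated 1 h at 37 °C in medium with 1% BSA, then exposed to compound in a 10-point dose response for 30 min at 37 °C. cAMP rise was detected by HTRF (Gs Dynamic kit). EC50 came from a sigmoidal fit of response against log agonist concentration.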

The structures appear in SMILES notation. Bounds are passed on as bounds.

GLP-1R, sequence (P43220 24-463): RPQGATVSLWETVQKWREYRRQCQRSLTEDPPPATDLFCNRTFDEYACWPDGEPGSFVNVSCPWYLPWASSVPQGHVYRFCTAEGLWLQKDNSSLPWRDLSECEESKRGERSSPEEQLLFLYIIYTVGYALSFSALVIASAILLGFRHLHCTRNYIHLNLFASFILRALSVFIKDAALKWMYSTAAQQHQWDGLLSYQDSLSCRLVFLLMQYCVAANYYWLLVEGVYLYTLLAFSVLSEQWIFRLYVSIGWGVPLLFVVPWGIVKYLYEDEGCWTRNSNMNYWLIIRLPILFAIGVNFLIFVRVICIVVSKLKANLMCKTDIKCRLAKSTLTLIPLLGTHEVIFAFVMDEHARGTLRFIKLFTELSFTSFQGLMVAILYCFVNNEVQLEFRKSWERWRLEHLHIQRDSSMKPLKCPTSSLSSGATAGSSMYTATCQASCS

By EC50 is commonly meant the concentration at which the effect is half-maximal. `COCCn1c(Cc2ccc(-c3cccc4c3OC(c3ccccc3)O4)cc2F)nc2ccc(C(=O)O)cc21` (single isomer, unassigned) [Example 35, 2-(2-fluoro-4-(2-phenylbenzo[d][1, 3]dioxol-4-yl)benzyl)-1-(2-methoxyethyl)-1H-benzo[d]imidazole-6-carboxylic acid]: the “Predicted Hepatic Clearance (Pred. Cl.)” value in data set [1] was 2.83 mL/min/kg. The concentration for a half-maximal effect (EC50) at GLP-1R is 0.646 µM.
Turning to `COCCn1c(Cc2cc(F)c(-c3cccc4c3OC(c3ccc(C#N)cc3F)O4)cc2F)nc2ccc(C(=O)O)cc21` (stereo not drawn) [Example 31, 2-(4-(2-(4-cyano-2-fluorophenyl)benzo [d][1,3]dioxol-4-yl)-2,5-difluorobenzyl)-1-(2-methoxyethyl)-1H-benzo[d]imidazole-6-carboxylic acid], in data set [1], the “Predicted Hepatic Clearance (Pred. Cl.)” value is 3.17 mL/min/kg. The 50% effective concentration (EC50) at GLP-1R is 0.089 µM.
Consider `CC1(c2ccc(Cl)cn2)Oc2cccc(-c3cc(F)c(Cc4nc5ccc(C(=O)O)cc5n4CC4(CC#N)CC4)c(F)c3)c2O1` (stereo not drawn) [Example 24, 2-(4-(2-(5-chloropyridin-2-yl)-2-methylbenzo[d][1, 3]dioxol-4-yl)-2,6-difluorobenzyl)-1-((1-(cyanomethyl)cyclo-propyl)methyl)-1H-benzo[d]imidazole 6-carboxylic acid], for which the “Predicted Hepatic Clearance (Pred. Cl.)” value in data set [1] is 2.67 mL/min/kg. In addition, the EC50 at GLP-1R is 0.0017 µM.
In the same order, the values of `CC1(c2ccc(Cl)cc2F)Oc2cccc(-c3cc(F)c(Cc4nc5ccc(C(=O)O)cc5n4CC4(CC#N)CC4)c(F)c3)c2O1` (stereo not drawn) [Example 1, 2-(4-(2-(4-chloro-2-fluorophenyl)-2-methylbenzo[d][1, 3]dioxol-4-yl)-2,6-difluorobenzyl)-1-((1-(cyanomethyl)cyclo-propyl)methyl)-1H-benzo[d]imidazole-6-carboxylic acid] are less than 1.83 mL/min/kg and 0.00051 µM.
`COCCn1c(Cc2ccc(-c3cccc4c3OC(c3ccc(C#N)cc3F)O4)cc2F)nc2ccc(C(=O)O)cc21` (single isomer, unassigned) [Example 34]: in data set [1], the “Predicted Hepatic Clearance (Pred. Cl.)” value is 4.17 mL/min/kg. In addition, the EC50 on GLP-1R was determined as 0.35 µM.
Take `COCCn1c(Cc2ccc(-c3cccc4c3OC(C)(c3ccc(Cl)cc3F)O4)nc2OC)nc2ccc(C(=O)O)cc21` (stereo not drawn) [Example 85, 2-((6-(2-(4-chloro-2-fluorophenyl)-2-methylbenzo[d][1, 3]dioxol-4-yl)-2-methoxypyridin-3-yl)methyl)-1-(2-methoxyethyl)-1H-benzo[d]imidazole-6-carboxylic acid]: in data set [1], the “Predicted Hepatic Clearance (Pred. Cl.)” value is 3 mL/min/kg. The EC50 at GLP-1R came out at 0.168 µM.
On to `COCCn1c(Cc2cc(F)c(-c3cccc4c3OC(C)(c3ccc(Cl)cc3F)O4)cc2F)nc2ccc(-c3nn[nH]n3)cc21` (stereo not drawn) [Example 84, 2-(4-(2-(4-chloro-2-fluorophenyl)-2-methylbenzo[d][1, 3]dioxol-4-yl)-2,5-difluorobenzyl)-1-(2-methoxyethyl)-6-(2H-tetrazol-5-yl)-1H-benzo[d]imidazole], for which the “Predicted Hepatic Clearance (Pred. Cl.)” value in data set [1] is 2.83 mL/min/kg. On GLP-1R, the EC50 came to 0.049 µM.
As to `COCCn1c(Cc2c(F)cc(-c3cccc4c3OC(C)(c3ccc(C(N)=O)cn3)O4)cc2F)nc2ccc(C(=O)O)cc21` (stereo not drawn) [Example 67, 2-(4-(2-(5-carbamoylpyridin-2-yl)-2-methylbenzo[d][1, 3]dioxol-4-yl)-2,6-difluorobenzyl)-1-(2-methoxyethyl)-1H-benzo[d]imidazole-6-carboxylic acid], in data set [1], the “Predicted Hepatic Clearance (Pred. Cl.)” value is 7.17 mL/min/kg. Moreover, on GLP-1R, the 50% effective concentration (EC50) turned out to be 0.02 µM.
Taken in the same sequence, the figures for `COCCn1c(Cc2cc(F)c(-c3cccc4c3OC(c3ccc(C#N)cc3F)O4)cc2F)nc2ccc(C(=O)O)cc21` (single isomer, unassigned) [Example 40, 2-(4-(2-(4-cyano-2-fluorophenyl)benzo [d][1,3]dioxol-4-yl)-2,5-difluorobenzyl)-1-(2-methoxyethyl)-1H-benzo[d]imidazole-6-carboxylic acid] were 5 mL/min/kg and 1.23 µM.
In the same order, the values of `COCCn1c(Cc2c(F)cc(-c3cccc4c3OC(C)(c3ccc(Cl)cc3F)O4)cc2F)nc2ccc(C(=O)O)cc21` (stereo not drawn) [Example 19, 2-(4-(2-(4-chloro-2-fluorophenyl)-2-methylbenzo[d][1, 3]dioxol-4-yl)-2,6-difluorobenzyl)-1-(2-methoxyethyl)-1H-benzo[d]imidazole-6-carboxylic acid] are 2.5 mL/min/kg and 0.00097 µM.
In the same order, the values of `N#Cc1ccc(C2Oc3cccc(-c4cc(F)c(Cc5nc6ccc(C(=O)O)cc6n5C[C@@H]5CCO5)c(F)c4)c3O2)c(F)c1` (single isomer, unassigned) [Example 41] are 2.83 mL/min/kg and 0.438 µM.
On to `COCCn1c(Cc2ccc(-c3cccc4c3OC(C)(c3ccc(Cl)cc3F)O4)n(C)c2=O)nc2ccc(C(=O)O)cc21` (stereo not drawn) [Example 87, 2-((6-(2-(4-chloro-2-fluorophenyl)-2-methylbenzo[d][1, 3]dioxol-4-yl)-1-methyl-2-oxo-1,2-dihydropyridin-3-yl)methyl)-1-(2-methoxyethyl)-1H-benzo[d]imidazole-6-carboxylic acid], for which the “Predicted Hepatic Clearance (Pred. Cl.)” value in data set [1] was 9 mL/min/kg. Besides, the EC50 at GLP-1R worked out at 1.15 µM.
On to `CC1(c2ccc(Cl)cc2F)Oc2cccc(-c3ccc(Cc4nc5ccc(C(=O)O)cc5n4C[C@@H]4CCO4)cn3)c2O1` (stereo partly drawn) [Example 77, 2-((6-(2-(4-chloro-2-fluorophenyl)-2-methylbenzo[d][1, 3]dioxol-4-yl)pyridin-3-yl)methyl)-1-(((S)-oxetan-2-yl)methyl)-1H-benzo[d]imidazole-6-carboxylic acid], for which the “Predicted Hepatic Clearance (Pred. Cl.)” value in data set [1] is 4.33 mL/min/kg. Besides, on GLP-1R, the concentration for a half-maximal effect (EC50) amounted to 0.072 µM.
Taken in the same sequence, the figures for `CC1(c2ccc(C#N)cc2F)Oc2cccc(-c3cc(F)c(Cc4nc5ccc(C(=O)O)cc5n4C[C@@H]4CCO4)cc3F)c2O1` (stereo partly drawn) [Example 25, 2-(4-(2-(4-cyano-2-fluorophenyl)-2-methylbenzo[d][1, 3]dioxol-4-yl)-2,5-difluorobenzyl)-1-(((S)-oxetan-2-yl)methyl)-1H-benzo[d]imidazole-6-carboxylic acid] were 4.33 mL/min/kg and 0.0003 µM.
With `CCn1cnnc1Cn1c(Cc2c(F)cc(-c3cccc4c3OC(C)(c3ccc(Cl)cc3F)O4)cc2F)nc2ccc(C(=O)O)cc21` (stereo not drawn) [Example 68, 2-(4-(2-(4-chloro-2-fluorophenyl)-2-methylbenzo[d][1, 3]dioxol-4-yl)-2,6-difluorobenzyl)-1-((4-ethyl-4H-1,2,4-triazol-3-yl)methyl)-1H-benzo[d]imidazole-6-carboxylic acid], the “Predicted Hepatic Clearance (Pred. Cl.)” value in data set [1] was 2.83 mL/min/kg. In addition, at GLP-1R, the EC50 was found to be 0.012 µM.
For `COCCn1c(Cc2c(F)cc(-c3cccc4c3OC(C)(c3ccc(Cl)cc3OC)O4)cc2F)nc2ccc(C(=O)O)cc21` (stereo not drawn) [Example 60, 2-(4-(2-(4-chloro-2-methoxyphenyl)-2-methylbenzo[d][1, 3]dioxol-4-yl)-2,6-difluorobenzyl)-1-(2-methoxyethyl)-1H-benzo[d]imidazole-6-carboxylic acid], in data set [1], the “Predicted Hepatic Clearance (Pred. Cl.)” value is 3.5 mL/min/kg. The EC50 on GLP-1R was 0.0038 µM.
Taken in the same sequence, the figures for `CC1(c2ccc(Cl)cc2F)Oc2cccc(-c3cc(F)c(Cc4nc5ccc(C(=O)O)nc5n4CC4(CF)CC4)c(F)c3)c2O1` (stereo not drawn) [Example 21, 2-(4-(2-(4-chloro-2-fluorophenyl)-2-methylbenzo[d][1, 3]dioxol-4-yl)-2,6-difluorobenzyl)-3-((1-(fluoromethyl)cyclo-propyl)methyl)-3H-imidazo[4,5-b]pyridine-5-carboxylic acid] were less than 1.83 mL/min/kg and 0.00086 µM.
Turning to `COCCn1c(Cc2c(F)cc(-c3cccc4c3O[C@](C)(c3ccc(Cl)cc3F)O4)cc2F)nc2ccc(C(=O)O)cc21` [Example 103, 2-(4-(2-(4-chloro-2-fluorophenyl)-2-methylbenzo[d][1, 3]dioxol-4-yl)-2,6-difluorobenzyl)-1-(2-methoxyethyl)-1H-benzo[d]imidazole-6-carboxylic acid], the “Predicted Hepatic Clearance (Pred. Cl.)” value in data set [1] is 4.17 mL/min/kg. Moreover, the EC50 on GLP-1R was determined as 0.0082 µM.
For `COCCn1c(Cc2c(F)cc(-c3c(F)ccc4c3OC(C)(c3ccc(Cl)cn3)O4)cc2F)nc2ccc(C(=O)O)cc21` (stereo not drawn) [Example 100, 2-(4-(2-(5-chloropyridin-2-yl)-5-fluoro-2-methylbenzo[d][1, 3]dioxol-4-yl)-2,6-difluorobenzyl)-1-(2-methoxyethyl)-1H-benzo[d]imidazole-6-carboxylic acid], the “Predicted Hepatic Clearance (Pred. Cl.)” value in data set [1] is 10.3 mL/min/kg. Further, at GLP-1R, the concentration for a half-maximal effect (EC50) was determined as 0.014 µM.
As to `CC1(c2ccc(C#N)cc2F)Oc2cccc(-c3cc(F)c(Cc4nc5ccc(C(=O)O)cc5n4C[C@@H]4CCO4)c(F)c3)c2O1` (single isomer, unassigned) [Example 92], in data set [1], the “Predicted Hepatic Clearance (Pred. Cl.)” value is 2.67 mL/min/kg. For the same molecule, the half-maximal effective concentration (EC50) at GLP-1R came to 0.0033 µM.
In the same order, the values of `COCCn1c(Cc2ccc(-c3cccc4c3OC(C)(c3ccc(Cl)cc3F)O4)s2)nc2ccc(C(=O)O)cc21` (stereo not drawn) [Example 8, 2-((5-(2-(4-chloro-2-fluorophenyl)-2-methylbenzo[d][1, 3]dioxol-4-yl)thiophen-2-yl)methyl)-1-(2-methoxyethyl)-1H-benzo[d]imidazole-6-carboxylic acid] are 7.83 mL/min/kg and 0.078 µM.
